According to US7674819B2 (Warner-Lambert Company LLC, priority 2005, dated 2010):
Substitutions are numbered along the chain they refer to. pIC50: −log10 of the molar value. Like-named read-outs stand apart in the source and are kept apart here.

Columns and labels:
hAR = molecular target: T1, hAR (Homo sapiens, UniProt P10275); test: Competitive binding of 3H-DHT to baculovirus/Sf9 generated hAR extracts; conditions: one hour at 4° C., mean of multiple tests
T1 sequence (P10275 1-920): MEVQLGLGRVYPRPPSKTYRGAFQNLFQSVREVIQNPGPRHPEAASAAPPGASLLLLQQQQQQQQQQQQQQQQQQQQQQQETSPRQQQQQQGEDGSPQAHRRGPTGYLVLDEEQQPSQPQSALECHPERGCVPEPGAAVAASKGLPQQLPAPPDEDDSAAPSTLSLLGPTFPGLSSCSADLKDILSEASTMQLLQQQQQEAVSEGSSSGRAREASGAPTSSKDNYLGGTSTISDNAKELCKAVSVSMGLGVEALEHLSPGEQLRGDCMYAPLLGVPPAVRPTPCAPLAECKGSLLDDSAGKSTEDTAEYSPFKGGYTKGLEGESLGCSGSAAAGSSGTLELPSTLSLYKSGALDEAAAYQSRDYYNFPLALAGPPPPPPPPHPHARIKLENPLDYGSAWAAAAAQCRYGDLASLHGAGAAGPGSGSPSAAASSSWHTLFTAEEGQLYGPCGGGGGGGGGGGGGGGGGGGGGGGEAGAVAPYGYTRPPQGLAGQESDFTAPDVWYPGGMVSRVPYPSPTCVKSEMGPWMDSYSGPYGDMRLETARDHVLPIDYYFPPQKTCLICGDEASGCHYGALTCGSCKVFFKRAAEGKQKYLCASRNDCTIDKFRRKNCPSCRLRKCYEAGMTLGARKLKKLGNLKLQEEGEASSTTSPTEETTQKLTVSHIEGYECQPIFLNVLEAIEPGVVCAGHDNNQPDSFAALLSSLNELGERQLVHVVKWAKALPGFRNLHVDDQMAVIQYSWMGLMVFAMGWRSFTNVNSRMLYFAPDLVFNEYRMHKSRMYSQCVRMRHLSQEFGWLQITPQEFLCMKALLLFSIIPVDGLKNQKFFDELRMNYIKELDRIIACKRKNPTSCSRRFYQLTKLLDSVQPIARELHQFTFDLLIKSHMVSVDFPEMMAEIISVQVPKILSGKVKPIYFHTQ
Outline: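 Baculovirus/Sf9-expressed hAR extract incubated with test compound, hydroxylapatite and 1 nM 3H-DHT tracer for 1 h at 4° C, then washed free of unbound tracer. Affinity given as concentration inhibiting half of maximal 3H-DHT binding.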

androgen receptor = molecular target: T2, androgen receptor (Homo sapiens, UniProt P10275); test: AR Antagonist Cell Assay (MDA-MB453-MMTV clone 54-19, luciferase reporter); format: cell-based; conditions: inhibition of induction by DHT (final concentration at 100 μM), 17 hr, compound 0.32-1000 nM, mean of multiple tests
T2 sequence (P10275 1-920 Q868H): T1 sequence (P10275 1-920) with Q868H
Procedure: The compounds ability to antagonize the effects of androgen on the androgen receptor were determined in a whole cell assay as described immediately below.
Experimental Procedure for AR Antagonist Cell Assay
This cell line is a stable transfected cell line with MDA-MB453 cell background (a human breast tumor cell line expressing androgen receptor). A MMTV minimal promoter containing ARE was first cloned in front of a firefly luciferase reporter gene. Then the cascade was cloned into transfection vector pUV120puro. […] Puromycin resistant stable cell line was selected.
Cell Culture Media and Reagents:
Plating medium: DMEM (phenol red free), 10% charcoal treated HyClone serum, 1% L-glutamine
Assay medium: DMEM (phenol red free), 1% charcoal treated HyClone serum, 1% L-glutamine, 1% penicillin/streptomycin
Cells are maintained in culture medium, splitting cells when they reach 80-90% confluence
To test compounds, 10,000 cells/well are plated to opaque 96 cell culture plate in 100 ul/well plating medium, culture for overnight at 37° C. in cell culture incubator
Add 10 ul/well freshly prepared DHT (final concentration at […]) to each well, incubate at 37° C. for 17 hr (overnight)
Add 50 ul/well 3× luciferase buffer, incubate at room temperature for 5 minutes, then count on Luminometer
The results are reported as the mean of multiple tests described below (the numbers of tests are indicated in the footnote). N.D. denotes that the compound was not tested.

[1] = concentration at which one half of maximum binding of 1 nM 3H-DHT to hAR is inhibited, read-out: IC50
[2] = IC50, concentration at which one half of maximum binding of 1 nM 3H-DHT to hAR is inhibited

| SMILES | pIC50 (hAR; [1]) | pIC50 (androgen receptor; read-out: IC50) | pIC50 (androgen receptor) | pIC50 (hAR; [2]) |
| --- | --- | --- | --- | --- |
| CCCC(=O)N1CC(C)(C)C(Oc2ccc(C#N)c(C(F)(F)F)c2)C1=O (single isomer, unassigned; (+)) [Example 103, (+)-4-(1-Butyryl-4,4-dimethyl-2-oxo-pyrrolidin-3-yloxy)-2-trifluoromethyl-benzonitrile (single enantiomer)] | 6.89 | 6.90 |  |  |
| CC1(C)CN(C(=O)c2ccccc2)C(=O)C1Oc1ccc(C#N)c(C(F)(F)F)c1 (single isomer, unassigned; (+)) [Example 105, (+)-4-(1-Benzoyl-4,4-dimethyl-2-oxo-pyrrolidin-3-yloxy)-2-trifluoromethyl-benzonitrile] | 6.60 |  | 7.66 |  |
| CC1(C)CN(Cc2ccccc2)C(=O)C1Oc1ccc(C#N)c(C(F)(F)F)c1 (centres unmarked) [Example 5, 4-(1-Benzyl-4,4-dimethyl-2-oxo-pyrrolidin-3-yloxy)2-trifluoromethyl-benzonitrile] |  |  | 7.92 | 7.49 |
| CC1(C)CN(Cc2ccc(O)cc2)C(=O)C1Oc1ccc(C#N)c(C(F)(F)F)c1 (centres unmarked) [Example 8, 4-[1-(4-Hydroxy-benzyl)-4,4-dimethyl-2-oxo-pyrrolidin-3-yloxy]-2-trifluoromethyl-benzonitrile] |  |  | 7.48 | 7.77 |
| CC1(C)CN(Cc2ccccc2O)C(=O)C1Oc1ccc(C#N)c(C(F)(F)F)c1 (centres unmarked) [Example 11, 4-[1-(2-Hydroxy-benzyl)-4,4-dimethyl-2-oxo-pyrrolidin-3-yloxy]-2-trifluoromethyl-benzonitrile] |  |  | 7.85 | 7.77 |
| COc1cccc(CN2CC(C)(C)C(Oc3ccc(C#N)c(C(F)(F)F)c3)C2=O)c1 (centres unmarked) [Example 12, 4-[1-(3-Methoxy-benzyl)-4,4-dimethyl-2-oxo-pyrrolidin-3-yloxy]-2-trifluoromethyl-benzonitrile] |  |  | 6.51 | 6.95 |
| CC1(C)CN(Cc2cccc(O)c2)C(=O)C1Oc1ccc(C#N)c(C(F)(F)F)c1 (centres unmarked) [Example 13, 4-[1-(3-Hydroxy-benzyl)-4,4-dimethyl-2-oxo-pyrrolidin-3-yloxy]-2-trifluoromethyl-benzonitrile] |  |  | 6.50 | 7.96 |
| CC1(C)CN(Cc2ccccc2F)C(=O)C1Oc1ccc(C#N)c(C(F)(F)F)c1 (centres unmarked) [Example 15, 4-[1-(2-Fluoro-benzyl)-4,4-dimethyl-2-oxo-pyrrolidin-3-yloxy]-2-trifluoromethyl-benzonitrile] |  |  | 7.15 | 7.32 |
| CC1(C)CN(Cc2ccccc2F)C(=O)C1Oc1ccc(C#N)c(C(F)(F)F)c1 (centres unmarked) [Example 16, 4-[1-(2-Fluoro-benzyl)-4,4-dimethyl-2-oxo-pyrrolidin-3-yloxy]-2-trifluoromethyl-benzonitrile] |  |  | 7.37 | 7.59 |
| CC1(C)CN(Cc2ccc(F)cc2)C(=O)C1Oc1ccc(C#N)c(C(F)(F)F)c1 (centres unmarked) [Example 17, 4-[1-(4-Fluoro-benzyl)-4,4-dimethyl-2-oxo-pyrrolidin-3-yloxy]-2-trifluoromethyl-benzonitrile] |  |  | 6.67 | 6.84 |
| CC1(C)CN(Cc2cc(O)cc(O)c2)C(=O)C1Oc1ccc(C#N)c(C(F)(F)F)c1 (centres unmarked) [Example 18, 4-[1-(3,5-Dihydroxy-benzyl)-4,4-dimethyl-2-oxo-pyrrolidin-3-yloxy]-2-trifluoromethyl-benzonitrile] |  |  | 8.10 | 7.35 |
| CCCCN1CC(C)(C)C(Oc2ccc(C#N)c(C(F)(F)F)c2)C1=O (centres unmarked) [Example 19, 4-(1-Butyl-4,4-dimethyl-2-oxo-pyrrolidin-3-yloxy)-2-trifluoromethyl-benzonitrile] |  |  | 7.72 | 6.82 |
| CC(C)OC(=O)c1ccc(CN2CC(C)(C)C(Oc3ccc(C#N)c(C(F)(F)F)c3)C2=O)o1 (centres unmarked) [Example 27, 5-[3-(4-Cyano-3-trifluoromethyl-phenoxy)-4,4-dimethyl-2-oxo-pyrrolidin-1-ylmethyl]-furan-2-carboxylic acid isopropyl ester] |  | 6.43 |  | 7.36 |
| COC(=O)c1ccc(CN2CC(C)(C)C(Oc3ccc(C#N)c(C(F)(F)F)c3)C2=O)o1 (centres unmarked) [Example 28, 5-[3-(4-Cyano-3-trifluoromethyl-phenoxy)-4,4-dimethyl-2-oxo-pyrrolidin-1-ylmethyl]-furan-2-carboxylic acid methyl ester] | 6.51 | 6.50 |  |  |
| CCOC(=O)c1ccc(CN2CC(C)(C)C(Oc3ccc(C#N)c(C(F)(F)F)c3)C2=O)o1 (centres unmarked) [Example 29, 5-[3-(4-Cyano-3-trifluoromethyl-phenoxy)-4,4-dimethyl-2-oxo-pyrrolidin-1-ylmethyl]-furan-2-carboxylic acid ethyl ester] |  |  | 6.91 | 6.92 |
| COC(=O)c1csc(CN2CC(C)(C)C(Oc3ccc(C#N)c(C(F)(F)F)c3)C2=O)n1 (centres unmarked) [Example 30, 2-[3-(4-Cyano-3-trifluoromethyl-phenoxy)-4,4-dimethyl-2-oxo-pyrrolidin-1-ylmethyl]-thiazole-4-carboxylic acid methyl ester] |  |  | 6.09 | 6.67 |
| CC1(C)CN(Cc2ccncc2)C(=O)C1Oc1ccc(C#N)c(C(F)(F)F)c1 (centres unmarked) [Example 35, 4-(4,4-Dimethyl-2-oxo-1-pyridin-4-ylmethyl-pyrrolidin-3-yloxy)-2-trifluoromethyl-benzonitrile] |  |  | 6.31 | 6.89 |
| COC(=O)c1ccc(CN2CC(C)(C)C(Oc3ccc(C#N)c(C(F)(F)F)c3)C2=O)cc1 (centres unmarked) [Example 37, 4-[3-(4-Cyano-3-trifluoromethyl-phenoxy)-4,4-dimethyl-2-oxo-pyrrolidin-1-ylmethyl]-benzoic acid methyl ester] |  |  | 7.08 | 7.33 |
| CC1(C)CN(Cc2ccc3nsnc3c2)C(=O)C1Oc1ccc(C#N)c(C(F)(F)F)c1 (centres unmarked) [Example 39, 4-(1-Benzo[1,2,5]thiadiazol-5-ylmethyl-4,4-dimethyl-2-oxo-pyrrolidin-3-yloxy)-2-trifluoromethyl-benzonitrile] |  |  | 7.13 | 7.19 |
